Biological target: Proprotein convertase subtilisin/kexin type 9 (Homo sapiens, UniProt Q8NBP7)
Assay: Inhibition of human C-terminal V5 epitope tagged PCSK9 by luciferase reporter assay

IC50	SMILES
4500 nM	COc1ccc(CCC(=O)N(c2nccc3ccccc23)[C@@H]2CCCNC2)cc1
300 nM	O=C(c1ccc(-n2nnc3ccccc32)cc1)N(c1ncccc1Cl)[C@@H]1CCCNC1
300 nM	O=C(c1ccc(-c2cnn3cccnc23)cc1)N(c1ncccc1Cl)[C@@H]1CCCNC1 [US9227956, 2]

— BindingDB's records for PubMed 33592144 (Merck, 2021)
